{"source": "patent US20060128641A1", "about": "“Levamisole, avermectins or similar in pyrrolidone solvent” (priority 2002, published 2006)", "origin": "cited, not measured here", "key": {"Ostertagia": {"test_system": "Ostertagia", "conditions": "background table, cattle parasites"}, "[1]": {"conditions": "previously found"}, "Cooperia": {"test_system": "Cooperia", "conditions": "background table, cattle parasites"}, "[2]": {"conditions": "background"}}, "data": [{"smiles": "c1ccc([C@H]2CN3CCSC3=N2)cc1", "note": "[Levamisole]", "values": [{"measurement": "Ostertagia Efficacy", "setting": "Ostertagia", "value": "Poor"}, {"measurement": "pH required for stability", "setting": "[1]", "value": "less than 4"}, {"measurement": "Cooperia Efficacy", "setting": "Cooperia", "value": "Good"}, {"measurement": "solubility in water", "setting": "[2]", "value": "water soluble"}]}]}
